# “Also recorded” adds a separate entry of the source. Where two headings read alike, the source gives them in different places.
# Legend:
# [1] = Transepithelial transport (permeability) across Caco-2 cell monolayers, HPLC-PDA, with or without β-glucuronidase/sulfatase deconjugation; type: in vitro ADME, human; details: human, after β-glucuronidase/sulfatase
# Description: (§1) Caco-2 cells (ATCC no. HTB-37) were obtained from the American Type Culture Collection (Rockville, MD, USA) and cultured in DMEM containing […] sodium pyruvate, 20% fetal bovine serum, and 10,000 U/mL penicillin and 10,000 ug/mL streptomycin. Cell culture was maintained at 37 °C in a humidified atmosphere of 5% CO2. On achieving 80–90% confluence, Caco-2 cells were harvested using 0.25% trypsin–EDTA solution and mixed with complete DMEM medium. All cells were used for transport experiments between passages 30 and 40. The integrity of the Caco-2 cell monolayer in the transwell plates was evaluated by measuring transepithelial electrical resistance (TEER) across the monolayers using Millicell-ERS VoltOhm Meter (Millipore, Temecula, CA, USA). […] A (cm^2) is the area of the insert, 1.12 cm^2. […] The culture medium in inserts and plates was changed every 2–3 days for both A and B sides. All cells were used for transport experiments on days 19–21 postseeding. Before starting the transport experiment, the inserts were washed twice and equilibrated with transport buffer (HBSS containing […] HEPES, pH 7.4) for 30 min. Sample solutions of TL extract and RA were prepared and diluted in HBSS to the desired final concentrations. For the transport study of TL extract and RA across Caco-2 cell, sample solutions were added on donor chamber, 400 µL on A side or 1200 µL on B side. The equal volumes of transport buffer were replaced in the receiving chambers. The RA transport in samples was assessed either in A-B or B-A direction across Caco-2 cell monolayers. The plates were incubated at 37 °C for 120 min with gentle shaking at 100 rpm. The solutions of 200 µL on A side and 600 µL on B side were collected at the selected times of 30, 60, 90, and 120 min and immediately replaced with an equal volume of transport buffer to maintain the total volume in receiving chamber. Samples were stored at −80°C until analysis. The amount of transported RA in samples and reference compound was calculated using HPLC system according to the standard curve. β-glucuronidase/sulfatase (Type H-2 from Helix pomatia, 85 units/L of glucuronidase, and 7.5 units/L of sulfatase, Sigma-Aldrich Co., St. Louis, MO, USA) was added to collected samples, which were obtained from B-A solutions at 30, 60, 90, and 120 min, in a ratio of 1:20 and incubated at 37 °C for 4 h to release the parent compounds. These samples from both sides were then injected directly and analyzed for RA by HPLC. The relationship of Q (cumulative permeated amount; μg) versus time, was calculated with the following Equation (3):(3) Q=CnV+∑i=1n−1CiS where Cn is concentration of RA determined at nth sampling interval; V is volume of individual side, ∑i=1n−1Ci is sum of concentration of RA determined at sampling intervals 1 through n − 1, and S is volume of sampling aliquot The Papp (unit: cm/s) was determined and calculated from the amount of compound permeated per time by the following Equation (4):(4) Papp=(dQ/dt/C0×A) where dQ/dt is the steady-state flux of test compound across the cell monolayer in the receiver chamber (µg/min); C0 is the initial concentration in the donor (A or B side) chamber (µg/mL), and A is the surface area of the cell monolayer (cm^2). The membrane area (cm^2) of the insert is 1.12 cm^2. The ER was determined by calculating the ratio of Papp (B-A) versus Papp (A-B) as the following Equation (5):(5) ER=Papp (B-A)/Papp (A-B) where Papp (B-A) is the apparent permeability coefficient value in B-A direction, and Papp (A-B) is the permeability coefficient value in A-B direction. Basolateral recovery (%) was calculated as the amount of test compound transported through the Caco-2 cell monolayer to the B side and remaining on the A side at the end of the experiment divided by the initial amount on the A side.
# Caco-2 cell monolayers = assay: as above; type: in vitro ADME, human; details: for Papp (A-B) relative to B-A direction: after deconjugation; for ER (after Deconjugation): Papp (B-A)/Papp (A-B)
# Description: as §1
# [2] = Stability of RA in HBSS (pH 7.4) at 37 °C for 2 h; type: physicochemical; details: HBSS pH 7.4, 37 °C, TL extract 250 µg/mL equivalent to pure RA 3.267 µg/mL
# Description: The stability of RA in the TL extract of 250 µg/mL, which was equivalent to pure RA of 3.267 µg/mL in HBSS solution was determined. The TL extracts and RA were dissolved in HBSS solution (pH 7.4) and incubated at 37 °C for 2 h according to the same conditions as in the transport experiment. The contents of the RA as in TL extract and pure compound were measured for stability tests using HPLC. Their RA remains before and after incubation were calculated and expressed as a percentage of RA.
# [3] = Cytotoxicity test, MTT assay; type: cell-based, human; details: human, Caco-2 cells, 1000 µg/mL, read-out: cell viability
# Description: (§2) Cell viability of TL extracts and RA on Caco-2 cells was determined using MTT following modified assay. Caco-2 cells were seeded in 96-well plates at a density of 2 × 10^4 cells/well and cultured at 37 °C and 5% CO2 for 24 h. TL extracts and RA were dissolved in 50% DMSO and diluted with complete DMEM medium containing 0.1% DMSO in the culture medium. The tested compounds were diluted with medium at a concentration range of 1–1000 µg/mL for 24 h exposure experiment. After removal of the medium, the cells were washed with PBS and incubated with 50 µL of 0.5% MTT solution for 2 h at 37 °C and 5% CO2. A total of 50 μL of DMSO was put into each well to dissolve the formazan crystals. The absorbance was detected using a microplate reader at 590 nm. The percentage of cell viability was calculated according to the following Equation (1):(1) % Cell viability=A (sample)−A (blank)/A (control)−A (blank)×100 where A (sample) is absorbance value of sample; A (blank) is absorbance value of blank, and A (negative control) is absorbance value of control (cells). The experiment was performed in three replicates, and the concentration with a viability of more than 90% was chosen for evaluation in monolayer transport experiments as nontoxic to cells.
# Caco-2 cells [4] = assay: Cytotoxicity test, MTT assay; type: cell-based, human; details: concentrations below 500 µg/mL, 24 h
# Description: as §2
# [5] = set-up: method as in doi:10.1039/C6RA28237G; details: rats, cited from earlier work
# Caco-2 cells [6] = test system: Caco-2 cells; set-up: method as in PMID 15784988; details: cited from earlier work
# [7] = cited from earlier work
# [8] = pure RA 3.267 µg/mL, after β-glucuronidase/sulfatase, listed as RA in pure RA
compound,measurement,setting,value
"O=C(/C=C/c1ccc(O)c(O)c1)O[C@H](Cc1ccc(O)c(O)c1)C(=O)O [RA, Rosmarinic acid]","Papp A→B at 120 min, 3.267 µg/mL","[1]; Caco-2, pH 7.4, pure RA 3.267 µg/mL, read-out: Papp A-B Direction (after Deconjugation)",41.2 ± 2.29 ×10⁻⁶ cm/s
same,"Papp B→A at 120 min, 3.267 µg/mL","[1]; Caco-2, pH 7.4, pure RA 3.267 µg/mL, read-out: Papp B-A Direction (after Deconjugation)",20.4 ± 5.16 ×10⁻⁶ cm/s
same,"Papp A→B at 120 min, 6.808 µg/mL","[1]; Caco-2, pH 7.4, pure RA 6.808 µg/mL, read-out: Papp A-B Direction (after Deconjugation)",22.9 ± 0.97 ×10⁻⁶ cm/s
same,"Papp B→A at 120 min, 6.808 µg/mL","[1]; Caco-2, pH 7.4, pure RA 6.808 µg/mL, read-out: Papp B-A Direction (after Deconjugation)",6.2 ± 0.2 ×10⁻⁶ cm/s
same,"efflux ratio (ER), overall","Caco-2 cell monolayers; all concentrations, below 2 taken as no active efflux",less than 2
same,Papp (A-B) relative to B-A direction,Caco-2 cell monolayers; pure RA 3.267 µg/mL,2.02 fold
same,ER (after Deconjugation),Caco-2 cell monolayers; pure RA 3.267 µg/mL,0.5
same,Papp A-B Direction (after Deconjugation),Caco-2 cell monolayers; [8],41.2 ± 2.3 × 10^−6 cm/s
same,Papp B-A Direction (after Deconjugation),Caco-2 cell monolayers; [8],20.4 ± 5.2 × 10^−6 cm/s
same,Papp (A-B) relative to B-A direction,Caco-2 cell monolayers; pure RA 6.808 µg/mL,3.67 fold
same,ER (after Deconjugation),Caco-2 cell monolayers; pure RA 6.808 µg/mL,0.3
same,Papp A-B Direction (after Deconjugation),"Caco-2 cell monolayers; pure RA 6.808 µg/mL, after β-glucuronidase/sulfatase, listed as RA in pure RA",22.9 ± 1.0 × 10^−6 cm/s
same,"Papp values before deconjugation, A-B and B-A directions","Caco-2 cell monolayers; pure RA, both concentrations, both directions",could not be detected; also recorded: not detectable
same,RA stability in HBSS,[2],91%
same,"viability at 24 h, 1000 µg/mL",[3],85%
same,Cytotoxicity to Caco-2 cells,Caco-2 cells [4],nontoxic
same,oral absolute BA,[5]; single oral dose 12.5 mg/kg,1.69%
same,oral absolute BA,[5]; single oral dose 25 mg/kg,1.28%
same,oral absolute BA,[5]; single oral dose 50 mg/kg,0.91%
same,RA absorbed in Caco-2 cells,Caco-2 cells [6],0.03–0.06%
same,logarithm of octanol–water partition coefficient (logP),[7],1.626
same,partition coefficient (log Kow),[7],1.82

# — article PMC9227994, “Evaluation of the Intestinal Permeability of Rosmarinic Acid from Thunbergia laurifolia Leaf Water Extract in a Caco-2 Cell Model” (Molecules, 2022)
